We go through 16 compounds from ChEMBL document CHEMBL5150014, “Discovery and Development of Dolastatin 10-Derived Antibody Drug Conjugate Anticancer Drugs” (J Nat Prod, 2022).

One assay has as its system MOLM-13. The assay can be described thus: Cytotoxicity against human MOLM-13 cells assessed as cell growth inhibition. It counts as functional, cell-based.
In assay [1] the test system is Panel NCI-60 (60 carcinoma cell lines). Nature of the assay: Cytotoxicity against human Panel NCI-60 (60 carcinoma cell lines) assessed as cell growth inhibition. Type of assay: functional, cell-based.
The test system of the next assay is BT-474. Nature of the assay: Anticancer activity against human BT-474 assessed as cell growth inhibition incubated for 4 days by WST-8 assay. Type of assay: functional. The note with it: BT-474, 96 h, time 4 day. On the technique in general: Tetrazolium assays rely on reduction of a dye to a coloured formazan, in cell work by metabolically active cells.
The next assay relates to HT-29. The assay can be described thus: Cytotoxicity against human HT-29 cells assessed as cell growth inhibition. Type of assay: functional, cell-based.
In another assay the target is Tubulin. The assay can be described thus: Inhibition of tubulin (unknown origin) polymerization assessed as reduction in microtubule formation measured for 20 mins by spectrophotometric analysis. It counts as protein-complex assay, Homo sapiens.
A further assay concerns L1210. The assay can be described thus: Cytotoxicity against mouse L1210 cells assessed as cell growth inhibition measured after 24 hrs. It counts as functional, cell-based. Conditions: L1210, 24 h.
The subject of the next assay is H3396. The assay can be described thus: Cytotoxicity against human H3396 cells assessed as cell growth inhibition measured after 96 hrs by resazurin dye based assay. It counts as functional. On the technique in general: Alamar Blue is a resazurin reagent that responds to reducing activity.
A further assay relates to HCT-116. Nature of the assay: Cytotoxicity against human HCT-116 cells assessed as cell growth inhibition measured after 96 hrs by resazurin dye based assay. Type of assay: functional.

Starred links: 1 amine or outer side, 2 acyl side, 3 side chain; linkers in the order of their positions; H or OH if unused. Non-standard residues stand in square brackets, D forms with d. Residues, ends and D or L forms follow the SMILES beside them. *: point of attachment. Dolaproine(4S-N3) = CO[C@H]([C@@H](C)C(=O)[*:2])[C@@H]1C[C@H](N=[N+]=[N-])CN1[*:1]; NMeVal(N-(CH2)3COOH) = CC(C)[C@@H](C(=O)*)N(C)CCCC(=O)O; Dolaproine = CO[C@@H]([C@@H]1CCCN1)[C@@H](C)C(=O)O; Abu(3S-N3) = C[C@H](N=[N+]=[N-])[C@H](N)C(=O)O; Dil = CC[C@H](C)[C@H](NC)[C@@H](CC(=O)O)OC; NMe2Val = CC(C)[C@@H](C(=O)*)N(C)C; Oxazinan2yl(1,2) = C1CCN(*)OC1; NMeV = CN[C@H](C(=O)O)C(C)C

What is called IC50 is the point on the concentration scale where inhibition reaches its midpoint. Take `CC[C@H](C)[C@@H]1[C@H](OC)CC(=O)N2C[C@H](C[C@H]2[C@H](OC)[C@@H](C)C(=O)N[C@@H](Cc2ccccc2)C(=O)OC)NC(=O)CCCC(=O)N[C@@H](C)[C@H](NC(=O)[C@H](NC)C(C)C)C(=O)N1C`: the IC50 in the assay with MOLM-13 is more than 1000 nM.
With `CC[C@H](C)[C@@H]([C@@H](CC(=O)N1CCC[C@H]1[C@H](OC)[C@@H](C)C(=O)N[C@@H](Cc1ccccc1)C(=O)O)OC)N(C)C(=O)[C@@H](NC(=O)[C@H](C(C)C)N(C)C)C(C)C` (NMe2Val-V[Dil][Dolaproine]F-OH), in assay [1], the IC50 amounted to 105 nM.
As usually defined, the GI50 is the concentration that inhibits growth by half. With `CC[C@H](C)[C@@H]([C@@H](CC(=O)N1C[C@@H](O)C[C@H]1[C@H](OC)[C@@H](C)C(=O)NCCc1c(F)cccc1F)OC)N(C)C(=O)[C@@H](NC(=O)[C@H](C(C)C)N(C)C)C(C)C`, in the assay with BT-474, the concentration for 50% growth inhibition (GI50) was found to be 0.23 nM.
As for `CC[C@H](C)[C@@H]([C@@H](CC(=O)N1C[C@H](O)C[C@H]1[C@H](OC)[C@@H](C)C(=O)NCCc1ccccc1)OC)N(C)C(=O)[C@@H](NC(=O)[C@H](C(C)C)N(C)C)C(C)C`, in the assay on BT-474, the GI50 was determined as 0.68 nM.
For `CC[C@H](C)[C@@H]([C@@H](CC(=O)N1CCC[C@H]1[C@H](OC)[C@@H](C)C(=O)NCCc1ccccc1)OC)N(C)C(=O)[C@@H](NC(=O)[C@H](C(C)C)N(C)C)C(C)C` [SOBLIDOTIN], the GI50 in assay [1] came out at 0.49 nM.
Consider `CC[C@H](C)[C@@H]([C@@H](CC(=O)N1C[C@@H](N=[N+]=[N-])C[C@H]1[C@H](OC)[C@@H](C)C(=O)N[C@@H](Cc1ccccc1)C(=O)OC)OC)N(C)C(=O)[C@@H](NC(=O)[C@@H](NC)C(C)C)[C@H](C)N=[N+]=[N-]` (H-[NMeV][Abu(3S-N3)][Dil][Dolaproine(4S-N3)]F-OMe), for which the GI50 with MOLM-13 was 0.279 nM.
Same read-out and setting: then `CC[C@H](C)[C@@H]([C@@H](CC(=O)N1C[C@@H](N=[N+]=[N-])C[C@H]1[C@H](OC)[C@@H](C)C(=O)N[C@@H](Cc1ccccc1)C(=O)OC)OC)N(C)C(=O)[C@@H](NC(=O)[C@@H](NC)C(C)C)C(C)C` (H-[NMeV]V[Dil][Dolaproine(4S-N3)]F-OMe), with 0.224 nM.
`CC[C@H](C)[C@@H]([C@@H](CC(=O)N1CCC[C@H]1[C@H](OC)[C@@H](C)C(=O)N[C@@H](Cc1c[nH]c2ccccc12)C(N)=O)OC)N(C)C(=O)[C@@H](NC(=O)[C@H](C(C)C)N(C)CCCC(=O)O)C(C)C` ({NMeVal(N-(CH2)3COOH)}-V[Dil][Dolaproine]W-NH2): in the assay with HT-29, the IC50 is 16 nM.
`CC[C@H](C)[C@@H]([C@@H](CC(=O)OC(C)(C)C)OC)N(C)C(=O)[C@@H](NC(=O)[C@H](C(C)C)N(C)C)C(C)C`: the IC50 at Tubulin is 4.2 nM.
Take `CC[C@H](C)[C@@H]([C@@H](CC(=O)N1CCC[C@H]1[C@@H](OC)[C@@H](C)C(=O)N[C@@H](Cc1ccccc1)c1nccs1)OC)N(C)C(=O)[C@@H](NC(=O)[C@H](C(C)C)N(C)C)C(C)C`: the half-maximal inhibitory concentration (IC50) in the assay on L1210 is more than 10000 nM.
On to `CC[C@H](C)[C@@H]([C@@H](CC(=O)N1CCC[C@H]1[C@H](OC)[C@@H](C)C(=O)N[C@H](/C=C\c1ccccc1)Cc1ccccc1)OC)N(C)C(=O)[C@@H](NC(=O)[C@H](C(C)C)N(C)CCCC(=O)O)C(C)C`, for which the IC50 with HT-29 was 3.3 nM.
In the case of `CC[C@H](C)[C@@H]([C@@H](CC(=O)N1CC(=O)C[C@H]1[C@H](OC)[C@@H](C)C(=O)NCCc1ccccc1)OC)N(C)C(=O)[C@@H](NC(=O)[C@H](C(C)C)N(C)C)C(C)C`, the GI50 in the assay with BT-474 is 5.23 nM.
Same read-out and setting: then `CC[C@H](C)[C@@H]([C@@H](CC(=O)N1C[C@@H](N)C[C@H]1[C@H](OC)[C@@H](C)C(=O)NCCc1c(F)cccc1F)OC)N(C)C(=O)[C@@H](NC(=O)[C@H](C(C)C)N(C)C)C(C)C`, with 0.17 nM.
On to `CC[C@H](C)[C@@H]([C@@H](CC(=O)N1CCC[C@H]1[C@H](OC)[C@@H](C)C(=O)N[C@@H](Cc1ccccc1)c1nn[nH]n1)OC)N(C)C(=O)[C@@H](NC(=O)[C@H](C(C)C)N(C)C)C(C)C`, for which the GI50 in the assay on H3396 came to 0.09 nM; in the assay on HCT-116, 6 nM.
On to `CC[C@H](C)[C@@H]([C@@H](CC(=O)N1CCC[C@H]1[C@H](OC)[C@@H](C)C(=O)N[C@@H](Cc1ccccc1)c1nnc(-c2ccccc2)o1)OC)N(C)C(=O)[C@@H](NC(=O)[C@H](C(C)C)N(C)CCCC(=O)O)C(C)C`, for which the IC50 in the assay with HT-29 worked out at 0.1 nM.
Same read-out and setting: then `CC[C@H](C)[C@@H]([C@@H](CC(=O)N1CCC[C@H]1[C@H](OC)[C@@H](C)C(=O)N[C@@H](Cc1c[nH]c2ccccc12)C(=O)N1CCCCO1)OC)N(C)C(=O)[C@@H](NC(=O)[C@H](C(C)C)N(C)C)C(C)C` (NMe2Val-V[Dil][Dolaproine]W-{Oxazinan2yl(1,2)}), with 0.5 nM.
